Assay results as given in US6376497B1, “Antifungal azole derivatives having a fluorinated vinyl group and process for preparing same” (Korea Research Institute of Chemical Technology, priority 1999, dated 2002).

How the values were obtained:
Assay in all cases: In vitro antifungal activity, microbroth dilution MIC
Assay type in all cases: cell-based
[1] = system: Aspergillus furnigatus B. 19119; conditions: for Minimal inhibitory concentration(MIC), A furnigatus B. 19119: RPMI-1640, 35° C., no growth observed
Method in brief: (§1)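 Broth microdilution adapted from NCCLS M27, in RPMI-1640 with 0.165 M MOPS, pH 7.0. Yeast or mould inoculum at 2×10^3 CFU/ml was mixed 1:1 with DMSO-derived compound solutions (200 to 0.10 μg/ml before mixing) and incubated at 35 °C for 4 to 48 h. MIC was the concentration showing no growth.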

[2] = system: Aspergillus niger A. 16404; conditions: for Minimal inhibitory concentration(MIC), A. niger A. 16404: RPMI-1640, 35° C., no growth observed
Method in brief: as §1

[3] = system: Candida albicans A. 10231; conditions: 4 to 48 hours; for Minimal inhibitory concentration(MIC), C. albicans A. 10231: RPMI-1640, 35° C., no growth observed
Method in brief: as §1

[4] = system: Candida albicans C1-2; conditions: 4 to 48 hours; for Minimal inhibitory concentration(MIC), C. albicans C1-2: RPMI-1640, 35° C., no growth observed
Method in brief: as §1

[5] = system: Candida albicans IFO. 1385; conditions: 4 to 48 hours; for Minimal inhibitory concentration(MIC), C. albicans IFO. 1385: RPMI-1640, 35° C., no growth observed
Method in brief: as §1

[6] = system: Candida krusei K. 11655; conditions: 4 to 48 hours; for Minimal inhibitory concentration(MIC), C. krusei K. 11655: RPMI-1640, 35° C., no growth observed
Method in brief: as §1

[7] = system: Candida parapsitosis A. 7330; conditions: 4 to 48 hours; for Minimal inhibitory concentration(MIC), C. parapsitosis A. 7330: RPMI-1640, 35° C., no growth observed
Method in brief: as §1

[8] = system: Candida pseudotropicalis K. 11658; conditions: 4 to 48 hours; for Minimal inhibitory concentration(MIC), C. pseudotropicalis K. 11658: RPMI-1640, 35° C., no growth observed
Method in brief: as §1

[9] = system: Candida tropicalis A. 13803; conditions: 4 to 48 hours; for Minimal inhibitory concentration(MIC), C. tropicalis A. 13803: RPMI-1640, 35° C., no growth observed
Method in brief: as §1

[10] = system: Cryptococcus neoformans A. 34144; conditions: for Minimal inhibitory concentration(MIC), Cry. neoformans A. 34144: RPMI-1640, 35° C., no growth observed
Method in brief: as §1

[11] = system: Cryptococcus neoformans B. 42419; conditions: 4 to 48 hours; for Minimal inhibitory concentration(MIC), Cry. neoformans B. 42419: RPMI-1640, 35° C., no growth observed
Method in brief: as §1

[12] = system: Cryptococcus neoformans IFM. 40092; conditions: for Minimal inhibitory concentration(MIC), Cry. neoformans IFM. 40092: RPMI-1640, 35° C., no growth observed
Method in brief: as §1

[13] = system: Torulopsis glabrata B. 16205; conditions: 4 to 48 hours; for Minimal inhibitory concentration(MIC), T. glabrata B. 16205: RPMI-1640, 35° C., no growth observed
Method in brief: as §1

[14] = system: Trichophyton mentagrophytes A. 9129; conditions: for Minimal inhibitory concentration(MIC), T. mentagrophytes A. 9129: RPMI-1640, 35° C., no growth observed
Method in brief: as §1

[15] = system: Trichophyton mentagrophytes B. 32663; conditions: for Minimal inhibitory concentration(MIC), T. mentagrophytes B. 32663: RPMI-1640, 35° C., no growth observed
Method in brief: as §1

| Compound | Minimal inhibitory concentration(MIC), A furnigatus B. 19119 ([1]; 4 to 48 hours) | Minimal inhibitory concentration(MIC), A. niger A. 16404 ([2]; 4 to 48 hours) | Minimal inhibitory concentration(MIC), C. albicans A. 10231 [3] | Minimal inhibitory concentration(MIC), C. albicans C1-2 [4] | Minimal inhibitory concentration(MIC), C. albicans IFO. 1385 [5] | Minimal inhibitory concentration(MIC), C. krusei K. 11655 [6] | Minimal inhibitory concentration(MIC), C. parapsitosis A. 7330 [7] | Minimal inhibitory concentration(MIC), C. pseudotropicalis K. 11658 [8] | Minimal inhibitory concentration(MIC), C. tropicalis A. 13803 [9] | Minimal inhibitory concentration(MIC), Cry. neoformans A. 34144 ([10]; 4 to 48 hours) | Minimal inhibitory concentration(MIC), Cry. neoformans B. 42419 [11] | Minimal inhibitory concentration(MIC), Cry. neoformans IFM. 40092 ([12]; 4 to 48 hours) | Minimal inhibitory concentration(MIC), T. glabrata B. 16205 [13] | Minimal inhibitory concentration(MIC), T. mentagrophytes A. 9129 ([14]; 4 to 48 hours) | Minimal inhibitory concentration(MIC), T. mentagrophytes B. 32663 ([15]; 4 to 48 hours) | other results |
| --- | --- | --- | --- | --- | --- | --- | --- | --- | --- | --- | --- | --- | --- | --- | --- | --- |
| FC(OCC1COC(Cn2ccnc2)(c2ccc(F)cc2F)O1)=C(c1cccc(Cl)c1)C(F)(F)F (mixture of isomers) [Ex. 64] | – | – | – | – | – | – | – | – | – | – | – | – | – | – | – | Minimal inhibitory concentration (MIC) ([1]; A furnigatus B. 19119, RPMI-1640, 35° C., 4 to 48 hours): 3.13 µg/mL; Minimal inhibitory concentration (MIC) ([2]; A. niger A. 16404, RPMI-1640, 35° C., 4 to 48 hours): 100 µg/mL; Minimal inhibitory concentration (MIC) ([3]; C. albicans A. 10231, RPMI-1640, 35° C.): 12.5 µg/mL; Minimal inhibitory concentration (MIC) ([4]; C. albicans C1-2, RPMI-1640, 35° C.): 12.5 µg/mL; Minimal inhibitory concentration (MIC) ([5]; C. albicans IFO. 1385, RPMI-1640, 35° C.): 0.78 µg/mL; Minimal inhibitory concentration (MIC) ([6]; C. krusei K. 11655, RPMI-1640, 35° C.): 50.0 µg/mL; Minimal inhibitory concentration (MIC) ([7]; C. parapsitosis A. 7330, RPMI-1640, 35° C.): 100 µg/mL; Minimal inhibitory concentration (MIC) ([8]; C. pseudotropicalis K. 11658, RPMI-1640, 35° C.): 25.0 µg/mL; Minimal inhibitory concentration (MIC) ([9]; C. tropicalis A. 13803, RPMI-1640, 35° C.): 100 µg/mL; Minimal inhibitory concentration (MIC) ([10]; Cry. neoformans A. 34144, RPMI-1640, 35° C., 4 to 48 hours): 1.56 µg/mL; Minimal inhibitory concentration (MIC) ([11]; Cry. neoformans B. 42419, RPMI-1640, 35° C.): 1.56 µg/mL; Minimal inhibitory concentration (MIC) ([12]; Cry. neoformans IFM. 40092, RPMI-1640, 35° C., 4 to 48 hours): 0.20 µg/mL; Minimal inhibitory concentration (MIC) ([13]; T. glabrata B. 16205, RPMI-1640, 35° C.): 6.25 µg/mL; Minimal inhibitory concentration (MIC) ([14]; T. mentagrophytes A. 9129, RPMI-1640, 35° C., 4 to 48 hours): 6.25 µg/mL; Minimal inhibitory concentration (MIC) ([15]; T. mentagrophytes B. 32663, RPMI-1640, 35° C., 4 to 48 hours): 1.56 µg/mL |
| CCOc1ccc(C(=C(F)OCC2COC(Cn3cncn3)(c3ccc(Cl)cc3Cl)O2)C(F)(F)F)cc1 (mixture of isomers) [Ex. 85] | >100 µg/mL | >100 µg/mL | 100 µg/mL | 100 µg/mL | 25.0 µg/mL | >100 µg/mL | >100 µg/mL | >100 µg/mL | >100 µg/mL | 1.56 µg/mL | 1.56 µg/mL | 0.39 µg/mL | >100 µg/mL | >100 µg/mL | >100 µg/mL | – |
| FC(=Cc1cccc(Cl)c1)Oc1ccc(OCC2COC(Cn3ccnc3)(c3ccc(Cl)cc3Cl)O2)cc1 (mixture of isomers) [Ex. 91] | 100 µg/mL | >100 µg/mL | 100 µg/mL | 100 µg/mL | 6.25 µg/mL | >100 µg/mL | >100 µg/mL | >100 µg/mL | >100 µg/mL | 1.56 µg/mL | 1.56 µg/mL | 0.78 µg/mL | >100 µg/mL | 100 µg/mL | >100 µg/mL | – |
| Cc1ccc(C(=C(F)Oc2ccc(OCC3COC(Cn4ccnc4)(c4ccc(Cl)cc4Cl)O3)cc2)C(F)(F)F)cc1 (mixture of isomers) [Ex. 94] | >100 µg/mL | >100 µg/mL | 25.0 µg/mL | 50.0 µg/mL | 3.13 µg/mL | >100 µg/mL | >100 µg/mL | >100 µg/mL | >100 µg/mL | 3.13 µg/mL | 3.13 µg/mL | 0.78 µg/mL | 50.0 µg/mL | 25.0 µg/mL | 12.5 µg/mL | – |

Second part, led by results:

| Minimal inhibitory concentration(MIC), A furnigatus B. 19119 ([1]; 4 to 48 hours) | Minimal inhibitory concentration(MIC), A. niger A. 16404 ([2]; 4 to 48 hours) | Minimal inhibitory concentration(MIC), C. albicans A. 10231 [3] | Minimal inhibitory concentration(MIC), C. albicans C1-2 [4] | Minimal inhibitory concentration(MIC), C. albicans IFO. 1385 [5] | Minimal inhibitory concentration(MIC), C. krusei K. 11655 [6] | Minimal inhibitory concentration(MIC), C. parapsitosis A. 7330 [7] | Minimal inhibitory concentration(MIC), C. pseudotropicalis K. 11658 [8] | Minimal inhibitory concentration(MIC), C. tropicalis A. 13803 [9] | Minimal inhibitory concentration(MIC), Cry. neoformans A. 34144 ([10]; 4 to 48 hours) | Minimal inhibitory concentration(MIC), Cry. neoformans B. 42419 [11] | Minimal inhibitory concentration(MIC), Cry. neoformans IFM. 40092 ([12]; 4 to 48 hours) | Minimal inhibitory concentration(MIC), T. glabrata B. 16205 [13] | Minimal inhibitory concentration(MIC), T. mentagrophytes A. 9129 ([14]; 4 to 48 hours) | Minimal inhibitory concentration(MIC), T. mentagrophytes B. 32663 ([15]; 4 to 48 hours) | Compound | other results |
| --- | --- | --- | --- | --- | --- | --- | --- | --- | --- | --- | --- | --- | --- | --- | --- | --- |
| – | – | >100 µg/mL | >100 µg/mL | 0.39 µg/mL | 0.39 µg/mL | 0.78 µg/mL | 0.39 µg/mL | >100 µg/mL | – | 0.39 µg/mL | – | 50.0 µg/mL | – | – | FC(=C(c1ccc(Cl)cc1)C(F)(F)F)N1CCN(c2ccc(OCC3COC(Cn4ccnc4)(c4ccc(F)cc4F)O3)cc2)CC1 (mixture of isomers) [Ex. 149] | Minimal inhibitory concentration(MIC), A furnigatus B. 19119 [1]: 6.25 µg/mL; Minimal inhibitory concentration(MIC), A. niger A. 16404 [2]: 100 µg/mL; Minimal inhibitory concentration(MIC), Cry. neoformans A. 34144 [10]: 0.78 µg/mL; Minimal inhibitory concentration(MIC), Cry. neoformans IFM. 40092 [12]: ≦0.10 μg/ml; Minimal inhibitory concentration(MIC), T. mentagrophytes A. 9129 [14]: 3.13 µg/mL; Minimal inhibitory concentration(MIC), T. mentagrophytes B. 32663 [15]: ≦0.10 μg/ml |
| 25.0 µg/mL | 100 µg/mL | >100 µg/mL | >100 µg/mL | 0.78 µg/mL | 1.56 µg/mL | 0.78 µg/mL | 1.56 µg/mL | >100 µg/mL | 0.78 µg/mL | 0.78 µg/mL | ≦0.10 μg/ml | 100 µg/mL | 6.25 µg/mL | 0.39 µg/mL | Cc1cccc(C(=C(F)N2CCN(c3ccc(OCC4COC(Cn5ccnc5)(c5ccc(F)cc5F)O4)cc3)CC2)C(F)(F)F)c1 (mixture of isomers) [Ex. 139] | – |
